Read-outs that look alike come from different tables or passages of the source. Square brackets hold non-standard residues; d marks the D form. Peptide text beside a SMILES is read from it. * marks the point of attachment. X15 = N[C@@H](CCCCCCC(Cl)Cl)[C@H](O)C(=O)*; X1 = N[C@H](CCCCCCC(Cl)Cl)[C@@H](O)C(=O)*; X14 = CCCCCCC[C@@H](N)[C@@H](O)C(=O)*; X6 = N[C@@H](CCCCCCCCl)[C@H](O)C(=O)*; X7 = N[C@H](CCCCCCCCl)[C@@H](O)C(=O)*; X10 = CCCCCCC[C@@H](N)[C@H](O)C(=O)*; NMeY = CN[C@@H](Cc1ccc(O)cc1)C(=O)O; X3 = CCCCCCC[C@H](NC)[C@H](O)C(=O)*; dNMeY = CN[C@H](Cc1ccc(O)cc1)C(=O)O; hTyr = N[C@@H](CCc1ccc(O)cc1)C(=O)O; X12 = N[C@H](CCCCCCC(Cl)Cl)CC(=O)*; X9 = CCCCCCC[C@H](N)[C@H](O)C(=O)*; NMeL = CN[CH](CC(C)C)C(=O)O; X2 = N[C@H](CCCCCCCCl)CC(=O)*; X5 = NC(CCCCCCCCl)C(O)C(=O)*; NMeV = CN[C@H](C(=O)O)C(C)C; X8 = CCCCCCCC(N)C(O)C(=O)*
Experiments:
ACE = conditions: cited from earlier work
APM = conditions: cited from earlier work; for IC50: Table S1; for Activity: APM (ni): Table S1, 'APM, ACE-ni'
[1] = target: T1, porcine kidney microsomal aminopeptidase M (Sus scrofa, UniProt P15145); experiment: Aminopeptidase M inhibitory assay; format: biochemical
T1 construct: purchased Sigma-Aldrich (St. Louis, MO, USA); host or cells: porcine kidney microsomes
T1 sequence (P15145 1-963): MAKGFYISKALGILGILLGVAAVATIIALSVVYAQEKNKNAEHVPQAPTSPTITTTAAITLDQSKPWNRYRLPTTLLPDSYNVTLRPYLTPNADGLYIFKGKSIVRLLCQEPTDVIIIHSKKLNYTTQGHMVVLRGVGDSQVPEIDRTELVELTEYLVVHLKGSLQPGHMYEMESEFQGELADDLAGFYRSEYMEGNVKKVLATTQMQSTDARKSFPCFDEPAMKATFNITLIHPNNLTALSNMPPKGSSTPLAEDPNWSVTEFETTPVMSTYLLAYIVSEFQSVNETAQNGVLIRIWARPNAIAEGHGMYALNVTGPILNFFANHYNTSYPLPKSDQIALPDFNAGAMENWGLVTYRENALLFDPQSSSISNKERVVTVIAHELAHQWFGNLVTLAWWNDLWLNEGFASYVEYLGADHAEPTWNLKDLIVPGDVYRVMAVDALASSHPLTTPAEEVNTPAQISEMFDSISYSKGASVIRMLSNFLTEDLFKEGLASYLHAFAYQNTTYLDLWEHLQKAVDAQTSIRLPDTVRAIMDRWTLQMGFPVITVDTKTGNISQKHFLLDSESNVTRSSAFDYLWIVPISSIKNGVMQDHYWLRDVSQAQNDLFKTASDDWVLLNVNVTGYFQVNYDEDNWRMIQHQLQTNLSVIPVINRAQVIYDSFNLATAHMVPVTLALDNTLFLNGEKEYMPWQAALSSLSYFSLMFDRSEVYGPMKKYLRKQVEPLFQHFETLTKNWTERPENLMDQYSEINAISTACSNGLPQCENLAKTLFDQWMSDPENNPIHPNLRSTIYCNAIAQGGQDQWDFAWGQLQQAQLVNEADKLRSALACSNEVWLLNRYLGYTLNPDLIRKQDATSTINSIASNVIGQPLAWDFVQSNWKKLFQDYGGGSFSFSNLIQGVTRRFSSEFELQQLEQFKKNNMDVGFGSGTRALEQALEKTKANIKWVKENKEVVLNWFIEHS
Method: Aminopeptidase M inhibitory activity was determined according to the procedure described by Ishida et al.. A reaction mixture composed of 20 μL of L-leucine-p-nitroanilide (2 mM in 0.1 M Tris-HCl buffer at pH 7.0), 50 μL of 0.1 M Tris-HCl buffer (pH 7.0) and 20 μL of test solution was added to each well of a 96-well microtiter plate. The plate was incubated at 37 °C for 5 min; thereafter, 10 μL of porcine kidney microsomal aminopeptidase M [EC Number 232-942-5, Sigma-Aldrich (St. Louis, MO, USA), […] in 3.5 M (NH4)2SO4] was added to each well, and the absorbance at 405 nm was measured for 30 min. The microginin samples were dissolved in DMSO at a concentration of 1 mg/mL, and the IC50 values were determined by analysis of a series of dilutions (from 45.5 μM to 0.00069 μM). A sigmoidal curve of the enzyme inhibition versus the concentration of the inhibitor was observed that was fit to a 4-parameter logistic model.

[2] = Table S1, ref 6 (Ishida et al., Tetrahedron 2000)
[3] = ref 6 (Ishida et al., Tetrahedron 2000), read-out: Activity: APM
[4] = ref 6 (Ishida et al., Tetrahedron 2000)
[5] = Table S1, ref 4 (Ishida et al., Tetrahedron 1998)
[6] = ref 4 (Ishida et al., Tetrahedron 1998), read-out: Activity: APM
[7] = Table S1, ref 9 (Sano et al., Phytochem. 2005)
[8] = ref 9 (Sano et al., Phytochem. 2005), read-out: Activity: APM
[9] = Table S1, ref 2 (Ishida et al., Tetrahedron 1997)
[10] = ref 2 (Ishida et al., Tetrahedron 1997), read-out: Activity: APM
[11] = Table S1, ref 5 (Kodani et al., FEMS Microbiol. Lett. 1999)
[12] = ref 5 (Kodani et al., FEMS Microbiol. Lett. 1999), read-out: Activity: AMP
[13] = ref 4 (Ishida et al., Tetrahedron 1998)

CCCCCCC[C@H](NC)[C@H](O)C(=O)N[C@H](C(=O)N(C)[C@H](C(=O)N(C)[C@@H](Cc1ccc(O)cc1)C(=O)N[C@@H](Cc1ccc(O)cc1)C(=O)O)C(C)C)C(C)C [Microginin 478] (X3-V[NMeV][NMeY]Y-OH)
IC50 (ACE; [2]): 13.2 µM
IC50 (APM; [3]): 132 µM

CC[C@H](C)[C@H](NC(=O)[C@H](O)[C@H](N)CCCCCCC(Cl)Cl)C(=O)N(C)[C@@H](CC(C)C)C(=O)N1CCC[C@H]1C(=O)N[C@@H](Cc1ccc(O)cc1)C(=O)O [Microginin 91-E] (X1-I[NMeL]PY-OH)
Activity: ACE (ni) (ACE; [2]): ni
IC50 (APM; [3]): 19.5 µM

Microginin 91-A
Activity: ACE (ni) (ACE; [2]): ni
Activity: APM (ni) (APM; [4]): ni

CCCCCCC[C@@H](N)[C@@H](O)C(=O)N[C@H](C(=O)N(C)[C@@H](CC(C)C)C(=O)N1CCC[C@H]1C(=O)N[C@@H](Cc1ccc(O)cc1)C(=O)O)[C@@H](C)CC [Microginin 91-C] (X14-I[NMeL]PY-OH)
Activity: ACE (ni) (ACE; [2]): ni
IC50 (APM; [3]): 71.1 µM

CCC(C)C(NC(=O)C(O)C(N)CCCCCCCCl)C(=O)N(C)C(CC(C)C)C(=O)N1CCCC1C(=O)O (centres unmarked) [Microginin 91-B]
Activity: ACE (ni) (ACE; [2]): ni
Activity: APM (ni) (APM; [4]): ni

CC(C)C[C@@H](C(=O)N1CCC[C@H]1C(=O)N[C@@H](Cc1ccc(O)cc1)C(=O)O)N(C)C(=O)[C@H](Cc1ccc(O)cc1)NC(=O)[C@H](O)[C@H](N)CCCCCCCCl [Microginin KR787] (X7-Y[NMeL]PY-OH)
IC50 ([1]; read-out: Activity: APM, Table S1, source 14 = this manuscript): 0.0057 µM
IC50 ([1]; read-out: IC50 in μM ± SD, Table 4, substrate L-leucine-p-nitroanilide, Tris-HCl pH 7.0, 37 °C): 5.7 ± 0.1 µM

CCCCCCC[C@H](N)[C@H](O)C(=O)N[C@H](C(=O)N(C)[C@H](C(=O)N(C)[C@@H](Cc1ccc(O)cc1)C(=O)N1CCC[C@H]1C(=O)N[C@@H](Cc1ccc(O)cc1)C(=O)O)C(C)C)C(C)C [Microginin 299-C] (X9-V[NMeV][NMeY]PY-OH)
Activity: ACE (ni) (ACE; [5]): ni
IC50 (APM; [6]): 2.3 µM

CC(C)[C@H](NC(=O)[C@H](O)[C@H](N)CCCCCCC(Cl)Cl)C(=O)N(C)[C@H](C(=O)N(C)[C@H](Cc1ccc(O)cc1)C(=O)N1CCC[C@@H]1C(=O)O)C(C)C [Microginin 299-D] (X1-V[NMeV][dNMeY][dP]-OH)
Activity: ACE (ni) (ACE; [5]): ni
IC50 (APM; [6]): 8.5 µM

CCCCCCC[C@@H](N)[C@H](O)C(=O)N[C@@H](C)C(=O)N[C@H](C(=O)N(C)[C@@H](Cc1ccc(O)cc1)C(=O)N[C@@H](CCc1ccc(O)cc1)C(=O)O)C(C)C [Cyanostatin A] (X10-AV[NMeY][hTyr]-OH)
IC50 (ACE; [7]): 150 µM
IC50 (APM; [8]): 55 µM

CC[C@H](C)[C@H](NC(=O)[C@H](O)[C@H](N)CCCCCCCCl)C(=O)N(C)[C@@H](CC(C)C)C(=O)N1CCC[C@H]1C(=O)N[C@@H](Cc1ccc(O)cc1)C(=O)O [Microginin 91-D] (X7-I[NMeL]PY-OH)
Activity: ACE (ni) (ACE; [2]): ni
IC50 (APM; [3]): 43.4 µM

CC(C)[C@H](NC(=O)[C@@H](O)[C@@H](N)CCCCCCC(Cl)Cl)C(=O)N(C)[C@H](C(=O)N(C)[C@@H](Cc1ccc(O)cc1)C(=O)N1CCC[C@H]1C(=O)N[C@@H](Cc1ccc(O)cc1)C(=O)O)C(C)C [Microginin 299-B] (X15-V[NMeV][NMeY]PY-OH)
Activity: ACE (ni) (ACE; [9]): ni
IC50 (APM; [10]): 7.1 µM

CCCCCCCC(N)C(O)C(=O)N[C@@H](C)C(=O)N[C@H](C(=O)N(C)[C@@H](Cc1ccc(O)cc1)C(=O)N[C@@H](Cc1ccc(O)cc1)C(=O)O)C(C)C (some centres unmarked) [Microginin] (X8-AV[NMeY]Y-OH)
Activity (ACE; Table S1, activity named without value, ref 1 (Okino et al., Tetrahedron Lett. 1993)): ACE

CCCCCCCC(N)C(O)C(=O)N[C@@H](C)C(=O)N1CCC[C@H]1C(=O)N[C@@H](Cc1ccc(O)cc1)C(=O)N[C@@H](Cc1ccc(O)cc1)C(=O)O (some centres unmarked) [Microginin T2] (X8-APYY-OH)
IC50 (ACE; [11]): 10 µM
IC50 (APM; [12]): 2.9 µM

CCCCCCC[C@H](N)[C@H](O)C(=O)N(C)[C@@H](CCSC)C(=O)N[C@@H](Cc1ccc(O)cc1)C(=O)N[C@@H](Cc1ccc(O)cc1)C(=O)O [Microginin 674]
Activity (ACE; Table S1, ref 15 (Product of LKT Laboratories, Inc.)): ACE inhibitor

CC(C)C[C@H](NC(=O)[C@H](Cc1ccc(O)cc1)NC(=O)C[C@H](N)CCCCCCC(Cl)Cl)C(=O)N(C)[C@@H](Cc1ccc(O)cc1)C(=O)N1CCC[C@H]1C(=O)O [Microginin 99-B] (X12-YL[NMeY]P-OH)
Activity: ACE (ni) (ACE; [5]): ni
Activity: APM (ni) (APM; [13]): ni

C[C@H](NC(=O)C(O)C(N)CCCCCCCCl)C(=O)N1CCC[C@H]1C(=O)N[C@@H](Cc1ccc(O)cc1)C(=O)N[C@@H](Cc1ccc(O)cc1)C(=O)O (some centres unmarked) [Microginin T1] (X5-APYY-OH)
IC50 (ACE; [11]): 6.8 µM
IC50 (APM; [12]): 2.7 µM

CCCCCCC[C@H](N)[C@H](O)C(=O)N[C@@H](Cc1ccc(O)cc1)C(=O)N(C)[C@H](C(=O)N(C)[C@@H](Cc1ccc(O)cc1)C(=O)N1CCC[C@@H]1C(=O)N[C@@H](Cc1ccc(O)cc1)C(=O)O)C(C)C [Microginin 51-A] (X9-Y[NMeV][NMeY][dP]Y-OH)
Activity: ACE (ni) (ACE; [2]): ni
IC50 (APM; [3]): 4.9 µM

CCCCCCC[C@H](NC)[C@H](O)C(=O)N[C@@H](Cc1ccc(O)cc1)C(=O)N(C)[C@H](C(=O)N(C)[C@@H](Cc1ccc(O)cc1)C(=O)N1CCC[C@@H]1C(=O)N[C@@H](Cc1ccc(O)cc1)C(=O)O)C(C)C [Microginin 51-B] (X3-Y[NMeV][NMeY][dP]Y-OH)
Activity: ACE (ni) (ACE; [2]): ni
Activity: APM (ni) (APM; [4]): ni

CC(C)[C@H](NC(=O)[C@@H](O)[C@@H](N)CCCCCCCCl)C(=O)N(C)[C@H](C(=O)N(C)[C@@H](Cc1ccc(O)cc1)C(=O)N1CCC[C@H]1C(=O)N[C@@H](Cc1ccc(O)cc1)C(=O)O)C(C)C [Microginin 299-A] (X6-V[NMeV][NMeY]PY-OH)
Activity: ACE (ni) (ACE; [9]): ni
IC50 (APM; [10]): 5.2 µM

CCCCCCCC(N)C(O)C(=O)NC(Cc1ccc(O)cc1)C(=O)N(C)C(CC(C)C)C(=O)N1CCCC1C(=O)NC(Cc1ccc(O)cc1)C(=O)O (centres unmarked) [Cyanostatin B] (X8-Y[NMeL]PY-OH; configuration not given here)
IC50 (ACE; [7]): 170 µM
IC50 (APM; [8]): 16 µM

CC(C)C[C@H](NC(=O)[C@H](Cc1ccc(O)cc1)NC(=O)C[C@H](N)CCCCCCCCl)C(=O)N(C)[C@@H](Cc1ccc(O)cc1)C(=O)N1CCC[C@H]1C(=O)O [Microginin 99-A] (X2-YL[NMeY]P-OH)
Activity: ACE (ni) (ACE; [5]): ni
Activity: APM (ni) (APM; [13]): ni

CCCCCCC[C@H](N)[C@H](O)C(=O)N(C)[C@@H](CC[S+](C)[O-])C(=O)N[C@@H](Cc1ccc(O)cc1)C(=O)N[C@@H](Cc1ccc(O)cc1)C(=O)O (some centres unmarked) [Microginin 690]
Activity (ACE; Table S1, ref 16 (Product of Santa Cruz Biotechnology)): ACE inhibitor
